Patent US9937234B2, “Compositions and methods for using and identifying antimicrobial agents” (priority 2013, dated 2018)

B1: human CXCL11 (protein, listed as Homo sapiens)
chain: QGFPMFKRGRCLCIGPGVKAVKVADIEKASIMYPSNNCDKIEVIITLKENKGQRCLNPKSKQARLIIKKVERKNF

Tested on: B. anthracis Sterne strain ΔftsX
Assay type: cell-based, Bacillus anthracis

Molecule | susceptibility of ΔftsX | susceptibility of ΔftsX exponential and stationary phase organisms | susceptibility of ΔftsX to CXCL10-mediated killing
human CXCL9 | resistant | – | –
human CXCL10 | – | both resistant | resistance
B1 | resistant | – | –
